Test results from ChEMBL document CHEMBL1201862, “PubChem BioAssay data set” (2004).
Active and inactive are the calls of the source.

Tests used:
Major prion protein = Major prion protein (Homo sapiens, UniProt P04156); assay type: functional, cell-based
cells [1] = assay: cells
[2] = toxicity to A549 lung cells – cell-based, plate reader, dry powder, set 6, cytotoxicity control, dose response (AID 743312); assay type: functional
cells [3] = conditions: HEK293
[4] = viability inhibitors of stage V gametocytes – luminescence, dose response (AID 1117278); assay type: functional, cell-based;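 note: gametocytes exposed to compound for 24 hours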
[5] = viability loss in human Jurkat cells – cell-based, luminescence, cytotoxicity control for P. falciparum gametocyte viability project, dose response (AID 1117277); assay type: functional;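 note: potency reflects loss of cellular ATP meaning fewer viable cells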
Paired box protein Pax-8 = Paired box protein Pax-8 (Homo sapiens, UniProt Q06710); assay: PAX8 transcriptional activity inhibition in RMG-I – RMG-I cells, luciferase, cherry-pick, dose response (AID 687027); assay type: functional, cell-based;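 note: luciferase reporter driven by Pax8 target thyroperoxidase promoter measured by SteadyGlo luminescence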
[6] = A2780 cell killing – plate reader, dry powder samples, cytotoxicity control, dose response (AID 743046); assay type: functional, cell-based
Protein Tat = Protein Tat (Human immunodeficiency virus type 1 group M subtype B (isolate HXB2)(HIV-1), UniProt P04608); assay type: functional;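 note: tat binding to TAR RNA read out by fluorescence polarization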
[7] = HIV-1 Vif–A3G interaction blockers – biochemical, TR-FRET, GST-Vif 1-94, biotin-A3G peptide, dose response retest, primary screen (AID 1117319); assay type: functional;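 note: TR-FRET signal of purified GST-Vif binding a biotinylated A3G peptide; inhibitors lower the FRET signal by blocking Vif and A3G binding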
[8] = Luminescence Cell-Based Dose Retest to Confirm Inhibitors of Cancer Stem Cells. [Related pubchem assays (depositor defined):AID2717, AID2721]; assay type: functional; conditions: Homo sapiens
[9] = potency of ADAM10 substrate cleavage blockers – biochemical, QFRET, dose response (AID 743254);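 note: ADAM10 enzyme with the DM2 quenched FRET peptide as substrate; EDANS fluorescence gain as the protease cuts the substrate; inhibitor potency against ADAM10 proteolytic activity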
[10] = target: Disintegrin and metalloproteinase domain-containing protein 17 (Homo sapiens, UniProt P78536); assay: inhibition of ADAM17 substrate cleavage – biochemical, quenched FRET substrate, counter-screen for ADAM10 exosite inhibitor project, dose response (AID 743253)
[11] = target: T1, Oxysterols receptor LXR-beta (Homo sapiens, UniProt P55055); assay type: functional, cell-based;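 note: Cell-based luminescence dose-response assay of agonist activity at LXR, run as a confirmatory counterscreen to a daf-12 agonist screen; HEK293 cells with Gal4-LXR fusion and GAL4-driven luciferase reporter; agonist potency from rising luciferase signal of a Gal4-LXR reporter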
T1 sequence (P55055 whole entry): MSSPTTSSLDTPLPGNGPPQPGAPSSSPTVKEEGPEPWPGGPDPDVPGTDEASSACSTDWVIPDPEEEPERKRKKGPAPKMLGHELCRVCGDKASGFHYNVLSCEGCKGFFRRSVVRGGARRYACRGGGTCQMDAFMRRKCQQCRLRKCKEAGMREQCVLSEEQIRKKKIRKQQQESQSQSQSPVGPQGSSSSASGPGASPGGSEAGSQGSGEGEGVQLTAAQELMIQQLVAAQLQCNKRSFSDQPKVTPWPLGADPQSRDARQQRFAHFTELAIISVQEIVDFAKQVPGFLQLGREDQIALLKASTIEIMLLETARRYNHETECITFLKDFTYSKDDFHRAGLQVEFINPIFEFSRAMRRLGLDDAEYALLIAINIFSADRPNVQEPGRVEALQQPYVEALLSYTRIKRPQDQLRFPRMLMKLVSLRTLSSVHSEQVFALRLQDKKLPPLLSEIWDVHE

cells [12] = assay: cells; remark: listed apart in the source
Galanin receptor type 3 = target: T2, Galanin receptor type 3 (Homo sapiens, UniProt O60755); assay: Fluorescence-based cell-based primary high throughput dose response assay to identify antagonists of the Galanin Receptor 3 (GalR3).; assay type: functional
T2 sequence (O60755 whole entry): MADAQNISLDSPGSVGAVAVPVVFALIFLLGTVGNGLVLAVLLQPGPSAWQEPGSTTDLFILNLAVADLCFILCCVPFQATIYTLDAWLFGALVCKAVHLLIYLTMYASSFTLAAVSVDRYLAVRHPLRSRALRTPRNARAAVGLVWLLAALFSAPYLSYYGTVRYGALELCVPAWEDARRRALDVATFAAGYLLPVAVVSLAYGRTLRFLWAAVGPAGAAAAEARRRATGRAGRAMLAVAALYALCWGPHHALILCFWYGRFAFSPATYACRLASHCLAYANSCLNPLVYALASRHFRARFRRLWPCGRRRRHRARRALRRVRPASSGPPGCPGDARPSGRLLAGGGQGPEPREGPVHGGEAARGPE

cells [13] = assay type: functional, cell-based; conditions: HEK-CNG
[14] = target: COUP transcription factor 2 (Homo sapiens, UniProt P24468); assay: Luminescence-based cell-based high throughput dose response assay to identify inhibitors of COUP-TFII (NR2F2).; assay type: functional;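 note: HEK293 cells transiently cotransfected with COUP-TFII expression vector and reporter; luciferase reporter luminescence driven by COUP-TFII from the pX2-168 reporter plasmid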
[15] = Counterscreen for […] of the human trace amine associated receptor 1 (TAAR1): Fluorescence-based cell-based high throughput dose response assay to identify nonselective Ga16 agonists.; assay type: functional
[16] = target: T3, Trace amine-associated receptor 1 (Homo sapiens, UniProt Q96RJ0); assay: Fluorescence-based cell-based high throughput dose response assay to identify antagonists of the human trace amine associated receptor 1 (TAAR1).; assay type: functional
T3 sequence (Q96RJ0 whole entry): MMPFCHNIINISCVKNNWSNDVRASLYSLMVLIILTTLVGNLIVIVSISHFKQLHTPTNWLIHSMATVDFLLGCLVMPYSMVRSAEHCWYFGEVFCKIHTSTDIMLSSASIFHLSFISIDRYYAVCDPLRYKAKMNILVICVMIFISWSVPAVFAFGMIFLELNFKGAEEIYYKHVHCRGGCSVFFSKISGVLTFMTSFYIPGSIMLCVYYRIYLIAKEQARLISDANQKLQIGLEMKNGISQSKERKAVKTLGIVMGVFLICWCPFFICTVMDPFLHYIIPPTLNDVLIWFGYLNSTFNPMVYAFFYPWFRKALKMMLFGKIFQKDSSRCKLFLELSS

[17] = Counterscreen for antagonists of the human trace amine associated receptor 1 (hTAAR1): Fluorescence-based cell-based high throughput dose response assay to identify nonselective Ga16 antagonists.; assay type: functional
[18] = target: T3, Trace amine-associated receptor 1; assay: Counterscreen for antagonists of the human trace amine associated receptor 1 (hTAAR1): Fluorescence-based cell-based high throughput dose response assay to identify TAAR1 Agonists.; assay type: functional

Structure (SMILES): CC(C)(C)c1nc(SCC(=O)NNC(=O)c2ccccc2)c2ccccc2n1
- IC50 (Major prion protein): 5.46 µM (active)
- IC50 (cells [1]): > 138 µM (inactive)

Structure (SMILES): CC(C)(C)c1ccc(OCCn2c(CO)nc3ccccc32)cc1
- AC50 [2]: 20.6 µM (active)
- AC50 (cells [3]): 21.6 µM (active)

Structure (SMILES): CC1CCCCN1C(=O)Cn1c(=O)oc2ccccc21 (centres undefined)
- IC50 [4]: > 109 µM (inactive)
- IC50 [5]: > 83.3 µM (inactive)

Structure (SMILES): C[C@H]1CN([C@@H](C)CO)C(=O)Cc2cc(NC(=O)Nc3ccc(C(F)(F)F)cc3)ccc2O[C@H]1CN(C)C(=O)Nc1ccc(C(F)(F)F)cc1
- AC50 (Paired box protein Pax-8): 13 µM (active)
- AC50 [6]: 25.8 µM (active)

Structure (SMILES): CC(=O)C1=C(O)C(=O)N(Cc2ccco2)C1c1ccc(F)cc1 (centres undefined)
- IC50 (Protein Tat): > 100 µM (active)
- IC50 [7]: > 100 µM (active)

Structure (SMILES): COc1ccccc1Nc1ccc(NC(=O)c2cccc([N+](=O)[O-])c2C)cc1
- AC50 [8]: 3.32 µM (active)
- IC50 [9]: 15.4 µM (inactive)
- IC50 [10]: > 69.5 µM (inactive)

Structure (SMILES): Cc1ccsc1/C=N/N=C/c1sccc1C
- EC50 [11]: > 67.5 µM (inactive)
- EC50 (cells [12]): > 67.5 µM (inactive)

Structure (SMILES): CC(C)c1ccc(CN2CCN(C(=O)CSc3nnnn3C3CC3)CC2)cc1
- IC50 (Galanin receptor type 3): 1.34 µM (active)
- EC50 (cells [13]): > 29.9 µM (inactive)
- IC50 [14]: 8.28 µM (active)

Structure (SMILES): CC(C)C[C@H](NC(=O)c1[nH]cnc1C(=O)NCC(=O)OCc1ccccc1)C(=O)OCc1ccccc1
- EC50 [15]: > 29.9 µM (inactive)
- IC50 [16]: 4.32 µM (active)
- IC50 [17]: > 29.9 µM (inactive)
- EC50 [18]: > 29.9 µM (inactive)

Structure (SMILES): O=C(COc1ccc2ccccc2c1Br)Nc1ccncc1
- IC50 (Major prion protein): 10.4 µM (inactive)
- IC50 (cells [1]): > 138 µM (inactive)
